Reference: patent EP0068806A2, “Basic acyl amides of (5-amino-1,3-dialkylpyrazol-4-yl)(aryl)methanones, processes for their production, and pharmaceutical compositions containing such compounds” (WARNER-LAMBERT COMPANY, priority 1981, dated 1983)

The molecules below were run on Long-Evans rats or squirrel-monkeys (assay: Conditioned lever-press avoidance of electric footshock (antipsychotic activity)). Settings: avoidance test for antipsychotic activity; Long-Evans rats or squirrel-monkeys (species per value not stated).
Type: in vivo
Procedure: Representative compounds of the invention (identified in the examples) were also tested for antipsychotic activity according to the following protocol. The noted compounds had the indicated ED50 values (mg/kg) and are considered active as antipsychotic agents in the test procedure.
Mature male Long-Evans rats or squirrel-monkeys are conditioned to push a lever in order to avoid a painful electric footshock. If the animal fails to push the. lever, he receives a shock every 10 seconds until the lever is pushed. Shocks can be terminated by pushing the lever. Thereafter, as long as the lever is pushed at least once every 20 seconds, there will be no shock.
Each animal acts as its own control; one weekly session is used to establish baseline behavior and another session later in the week is used as a drug session. Once patterns of avoidance are established, the effects of standard and unknown compounds are studied.
All events are electronically programmed and the response to these events counted or used as feed-back to the program.

Structure (SMILES) | ED50 [mg/kg]
Cc1nn(C)c(NC(=O)CN2CCCC2)c1C(=O)c1ccccc1F [Compound 1, N-[4-(2-Fluorobenzoyl)-1,3-dimethyl-1H-pyrazol-5-yl]-1-pyrrolidineacetamide] | 48.2
Cc1nn(C)c(NC(=O)CN2CCCCC2)c1C(=O)c1ccccc1F [Compound 5, N-[4-(2-Fluorobenzoyl)-1,3-dimethyl-1H-pyrazol-5-yl]-1-piperidine-acetamide] | 48
CCN(CC)CC(=O)Nc1c(C(=O)c2ccccc2F)c(C)nn1C [Compound 6, 2-(Diethylamino)-N-[4-(2-fluorobenzoyl)-1,3-dimethyl-1H-pyrazol-5-yl]acetamide] | 25.6
Cc1nn(C)c(NC(=O)CNCC2(C)OCCO2)c1C(=O)c1ccccc1F [Compound 8, N-[4-(2-Fluorobenzoyl)-1,3-dimethyl-1H-pyrazol-5-yl]-3-[[(2-methyl-1,3-dioxolan-2-yl)methyl]amino]acetamide] | 36.4
Cc1nn(C)c(NC(=O)CN2CC3CCC(CC3)C2)c1C(=O)c1ccccc1F [Compound 9, N-[4-(2-Fluorobenzoyl)-1,3-dinethyl-1H-pyrazol-5-yl]-3-azabicyclo-[3,2,2]nonane-3-acetamide] | 36.3
Cc1nn(C)c(NC(=O)CNCCCN2CCCCC2C)c1C(=O)c1ccccc1F (stereo not drawn) [Compound 20, N-[4-(2-Fluorobenzoyl)-1,3-dimethyl-1H-pyrazol-5-yl]-2-[[3-(2-methyl-1-piperidinyl)propyl]amino]acetamide] | 21.4
Cc1nn(C)c(NC(=O)CNCCCN2CCOCC2)c1C(=O)c1ccccc1F [Compound 35] | 51.6
CC1=C(NCCN(C)CC(=O)Nc2c(C(=O)c3ccccc3F)c(C)nn2C)CCC1=O [Compound 38, N-[4-(2-Fluorobenzoyl}-1,3-dimethyl-1H-pyrazol-5-yl]-2-[mothyl[2-[(2-methyl-3-oxo-1-cyclopenten-1-yl}amino]ethyl]amino]acetamide] | 21.7
Cc1nn(C)c(NC(=O)CSCCCN2CCCCC2C)c1C(=O)c1ccccc1F (stereo not drawn) [Compound 43, N-[4-(2-Fluorobenzoyl)-1,3-dimethyl-1H-pyrazol-5-yl]-2-[[3-(2-methyl-1-piperidinyl)propyl]thio]acetamide] | 26.5
